“Also recorded” adds a separate entry of the source.
Key:
CEM shC cells = assay: Growth of CEM cells treated with dT and/or dC over 7 days; format: cell-based, human; conditions: period of 7 days
Source text: Compound F2.2.1 was not used in “Mock” experiments in either panel A or B.

[1] = system: CCRF-CEM (CEM) human acute T lymphoblastic leukemia; assay: Leukemic cell proliferation and viability, CEM cells, 72 hours; format: cell-based
Procedure: Addition of 2.5 μM dC rescued the cell cycle from the thymidine block by the salvage pathway.

[2] = system: CCRF-CEM (CEM) human acute T lymphoblastic leukemia; assay: S-phase arrest by flow cytometry, CEM cells; format: cell-based
Procedure: (§1) At the end of the incubation period cells were analyzed by flow cytometry to determine the effects of the treatment on cell cycle progression.

[3] = molecular target: deoxycytidine kinase (dCK) (Homo sapiens, UniProt P27707); assay: Inhibition of [3H]-deoxycytidine (dCyd) uptake by CEM cells; conditions: for Inhibition of [3H]-dCyd uptake by CEM cells, in words: ranking within panel / compared with DI-0105, DI-0110 and DI-0120
Chain of deoxycytidine kinase (dCK) (P27707 whole entry): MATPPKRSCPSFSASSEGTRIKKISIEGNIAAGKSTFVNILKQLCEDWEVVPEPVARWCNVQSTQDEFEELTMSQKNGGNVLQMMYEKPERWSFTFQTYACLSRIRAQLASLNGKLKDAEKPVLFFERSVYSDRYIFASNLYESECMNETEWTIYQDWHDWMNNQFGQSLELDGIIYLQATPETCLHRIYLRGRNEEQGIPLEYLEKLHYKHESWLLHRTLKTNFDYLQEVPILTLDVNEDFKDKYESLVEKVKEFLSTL
Procedure: Potency of dCK inhibitory activities of the compounds can be tested by measuring cellular substrate uptake and phosphorylation, for examples, uptake of [^3H]-deoxycytidine (dCyd or dC) into CEM (human) or L1210 (mouse) cells.
50,000 CEM cells/well were added to Millipore MultiScreen GV 96 well plates. Cells were resuspended at 1×10^6 cells/mL and incubated for 30 minutes at 37° C. The drug dilution plate was prepared by starting with an initial drug concentration of 10 mM in DMSO, and proceeding to make 1:5 dilutions for drug. 10 mL of drug was added to 40 mL DMSO and mixed by pipetting 10 times before removing 10 uL for next well (1:5 serial dilutions). The media and tritiated deoxycytidine was mixed together. 245 mL of media/probe mixture was added to each well of an Optiplate. 5 mL from drug plate was added to each well in the Optiplate to obtain drug/media/probe mixture and mixed. 50 mL of drug/media/probe mixture from Optiplate was added to the cell plate and incubate at 37° C. for 1 hour. The cell plate was placed on vacuum to aspirate, and then washed with ice cold PBS: 200 mL 1×PBS 4 times. The backing of the plate was peeled off, and the plate was placed in dryer for at least 30 minutes or until dry at 37° C. 100 mL Scintillation fluid per well was added, and the plate was sealed with clear plate seal. The plate was read on the Microbeta instrument.

[4] = system: IGROV1 human ovarian adenocarcinoma; assay: S-phase arrest by flow cytometry, IGROV1 cells; format: cell-based
Procedure: as §1

[5] = system: A549 human lung adenocarcinoma cells; assay: Cell proliferation and viability, A549 cells, 72 hours; conditions: 1 μM F2.2.1 + 1 mM dT
Procedure: At the end of the incubation period cells were analyzed by flow cytometry to determine the effects of the treatment on cell proliferation and viability.

thymidine (dT) uptake = assay: Inhibition of thymidine (dT) uptake (selectivity vs. dC uptake); conditions: read-out: dCKi IC50 dT
Source text: Potency of dCK inhibitory activities of the compounds can be tested by measuring cellular substrate uptake and phosphorylation, for examples, uptake of [^3H]-deoxycytidine (dCyd or dC) into CEM (human) or L1210 (mouse) cells. The compounds may be further screened for low off-target toxicity (e.g., inhibition of growth and proliferation of dCK negative cells) and selectivity over other nucleoside kinases (e.g., thymidine kinase).

dCK activity = molecular target: T1, dCK activity (Mus musculus, UniProt P43346); assay: Inhibition of dCK activity in vivo by 18F-FAC PET/CT imaging; conditions: mice
T1 construct: dCK expressing tissues such as Thymus (Thy), Bone marrow (BM), spleen (S) and the GI tract; from tissue; host or cells: living mice: thymus, bone marrow, spleen, GI tract
T1 sequence (P43346 whole entry): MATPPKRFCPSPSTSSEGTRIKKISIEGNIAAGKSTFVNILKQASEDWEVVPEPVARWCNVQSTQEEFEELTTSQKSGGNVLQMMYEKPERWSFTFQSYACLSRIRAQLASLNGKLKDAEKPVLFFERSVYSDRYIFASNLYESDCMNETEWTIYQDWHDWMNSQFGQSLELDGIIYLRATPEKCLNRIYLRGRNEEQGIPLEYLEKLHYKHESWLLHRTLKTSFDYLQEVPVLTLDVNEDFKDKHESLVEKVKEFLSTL
Procedure: Mice were treated with the dCK inhibitor and scanned at indicated time points by ^18F-FAC PET/CT to non-invasively determine dCK activity in vivo, throughout the body. ^18F-FAC PET/CT scans were performed as described in Shu, C. J. et al., “Novel PET probes specific for deoxycytidine kinase” J. Nucl.

Primary murine T cells = assay: In vitro T lymphocyte proliferation (CFSE, flow cytometry); format: cell-based, C57/BL6 mice; conditions: 1 μM final concentration, 72 hours after activation
Procedure: Primary murine T cells were obtained from C57/BL6 mice. […] Prior to antibody-mediated activation, T cells were labeled with the fluorescent dye CFSE to allow measurements of cell division. […] The dCK inhibitors were used at 1 μM final concentration.

[6] = system: NALM-6 human acute B lymphoblastic leukemia; assay: S-phase arrest by flow cytometry, NALM-6 cells; format: cell-based
Procedure: as §1

[7] = system: NALM-6 human acute B lymphoblastic leukemia; assay: Cell proliferation and viability, NALM-6 cells, 72 hours; conditions: 1 μM F2.2.1 + 1.6 mM dT, media with 1.25 μM deoxycytidine
Procedure: At the end of the incubation period cells were analyzed by flow cytometry to determine the effects of the treatment on leukemic cell proliferation and viability.

With `COc1ccc(-c2nc(CSc3nc(N)cc(N)n3)c(C)s2)cc1OCCF` [Compound F2.2.1] the “Growth of thymidine (dT) treated CEM cells” value (CEM shC cells) was “completely suppressed the growth”, the “Growth / proliferation of CEM cells, combination with thymidine” value ([1]; 1 μM F2.2.1 + 50 μM dT) was “almost completely shut down the growth of CEM cells; also recorded: significantly reduce the proliferation” and the “Effect on cell viability, compound alone” value ([1]; 1 μM alone) was “little effect on cell viability”. For the same molecule, the “dT + dCKi % S-phase arrest (of cells in cycle)” value (“dT + dCKi % S-phase arrest” below) ([2]; 50 mM dT + 1 mM F2.2.1, 24 hours) was 84.5%, the “Inhibition of [3H]-dCyd uptake by CEM cells, in words” value (from here on “Inhibition of [3H]-dCyd uptake”) [3] was “superior activities” and the “dT + dCKi % S-phase arrest” value ([4]; IGROV1, 1 mM dT + 1 mM F2.2.1, 24 hours) was 60.3%. For the same molecule, the “Proliferation of A549 cells, combination with thymidine” value [5] was “significantly reduce the proliferation”, the IC50 (thymidine (dT) uptake) was 4930 nM and the “Duration of inhibition of dCK activity in vivo in multiple tissues” value (dCK activity; 200 mg/kg oral gavage) was “at least 2 hours”. For the same molecule, the “18F-FAC signals in dCK expressing tissues” value (dCK activity; Thymus, Bone marrow, spleen and GI tract) was “Significant decrease”, the “18F-FAC signals in the bladder” value (dCK activity; bladder, probe clearance organ) was “not affected” and the T cell proliferation (Primary murine T cells) was “significantly blocks T cell proliferation”. For the same molecule, the “dT + dCKi % S-phase arrest” value ([6]; NALM-6, 1.6 mM dT + 1 mM F2.2.1, 24 hours) was 79.8% and the “Proliferation of NALM-6 cells, combination with thymidine” value [7] was “significantly reduce the proliferation”.

With `CCCc1sc(-c2ccc(OC)c(OCCO)c2)nc1CSc1nc(N)cc(N)n1` [DI-26] the T cell proliferation (Primary murine T cells) was “significantly blocks T cell proliferation”.

With `CCCc1sc(-c2ccc(OC)c(OCCO)c2)nc1CSc1nccc(N)n1` [DI-27] the “Inhibition of [3H]-dCyd uptake” value [3] was “among the most potent compounds in this panel”.

In the case of `CCCc1sc(-c2cccc(OCCO)c2)nc1CSc1nc(N)cc(N)n1` [DI-29], the “Inhibition of [3H]-dCyd uptake” value [3] is reported as “among the most potent compounds in this panel”.

With `CCCc1sc(-c2ccnc(OCCO)c2)nc1CSc1nc(N)cc(N)n1` [DI-30] the EC50 [3] was 2.5 nM and the “Inhibition of [3H]-dCyd uptake” value [3] was “among the most potent compounds in this panel; also recorded: superior activities”.

`CCOc1ccc(-c2nc(CSc3nc(N)cc(N)n3)cs2)cc1OC` [DI-0105] showed an EC50 [3] of 133 nM.

For `COc1ccc(-c2nc(CSc3nc(N)cc(N)n3)cs2)cc1` [DI-0110], the EC50 [3] was 478 nM.

Work on `COc1ccc(Br)cc1-c1nc(CSc2nc(N)cc(N)n2)cs1` [DI-0120] yielded an EC50 [3] of 779 nM.

In the case of `Cc1cn([C@H]2C[C@H](O)[C@@H](CO)O2)c(=O)[nH]c1=O` [dT, thymidine, reference compound], the “Cell growth and cell cycle, thymidine alone” value ([1]; dT at 50 μM) is reported as “suppressed cell growth but failed to shut down the cell cycle”, the “dT without dCKi % S-phase arrest (of cells in cycle)” value (“dT without dCKi % S-phase arrest” for short) ([2]; 50 mM dT, 24 hours) is reported as 36% and the “dT without dCKi % S-phase arrest” value ([4]; IGROV1, 1 mM dT, 24 hours) is reported as 35.9%. The “dT without dCKi % S-phase arrest” value ([6]; NALM-6, 1.6 mM dT, 24 hours) was 52%.

`Nc1ccn([C@H]2C[C@H](O)[C@@H](CO)O2)c(=O)n1` [deoxycytidine (dC), deoxycytidine] was tested, and the “Number of viable cells relative to vehicle control, deoxycytidine” value ([1]; 2.5 μM dC) was “decreased the number of viable cells”.
